Laboratory results taken from patent publication US9556417B2, “Reprogramming of cells to a new fate” (The Scripps Research Institute, priority 2010, dated 2017).

What was measured:
secondary MEFs = assay: Neural transdifferentiation of secondary MEFs with exposure to LIF-containing medium; format: cell-based, mouse
Method: NGFP1 Dox-inducible iPS cells (Hanna J. et al., Nature (2009); Hanna, J. et al., Cell 133(2):250-264 (2008)) (Stemgent) were injected into C57BL/6 blastocysts and implanted into surrogate mice (CD1, Harlan). Chimeric embryos were isolated at E12.5-13.5. Heads, developing organs and spinal cords were carefully removed from the embryos and MEFs were prepared and selected as previously described (Hanna J. et al., Nature (2009); Wernig, M. et al., Nat Biotechnol 26(8):916-924 (2008); Hanna, J. et al., Cell 133(2):250-264 (2008)). For reprogramming, secondary MEFs (p3-4) were plated on Geltrex-coated culture dishes at 1.5-2×10^4 cells/cm^2 in MEF medium (Dullbecco's modified Eagle's medium supplemented with 10% fetal bovine serum, 0.1 mM non-essential amino acids, and 2 mM Glutamax). Doxycycline (Sigma-Aldrich, 2-8 μg/ml) treatment was initiated the next morning (Day 0) and continued until the designated day(s). Cells were cultured in MEF medium for an additional day and changed to reprogramming initiation medium (RepM-Ini; knock-out DMEM supplemented with 10% knock-out serum replacer, 5% FBS, 0.1 mM NEAA, 2 mM Glutamax, and 0.055 mM β-mercaptoethanol) for three days. For neural stem/progenitor reprogramming, the medium was changed into neural reprogramming medium (RepM-Neural; Advanced DMEM/F12 and Neurobasal medium were mixed by 1:1 and supplemented with 0.05% bovine serum albumin, 1×N2, 1×B27, 2 mM Glutamax, 0.11 mM β-mercaptoethanol, 20 ng/ml FGF2, 2 ng/ml FGF4, and 20 ng/ml EGF). RepM-Pluri is the same as RepM-Ini, with the addition of 1000 units/ml LIF (Millipore).
Total RNA was extracted from samples at the designated time points using the RNeasy Plus Mini Kit with QiaShredder (Qiagen). One microgram of total RNA per sample was reverse-transcribed using the iScript cDNA synthesis kit (Bio-Rad) and the cDNA was diluted with 130 ul of water. 1/50 of the diluted cDNA was used for quantitative PCR with iQ SYBR Green Supermix on the CFX96 system (Bio-Rad). All qPCR reactions were done in duplicate or triplicate, and the expression data were normalized to both Gapdh and β-actin expression using CFX manager software (Bio-Rad). All primer sequences are listed in previous publications (Hanna J. et al., Nature (2009); Wernig, M. et al., Nat Biotechnol 26(8):916-924 (2008); Greber, B. et al., Cell Stem Cell 6(3):215-226 (2010)).
Samples were washed once with D-PBS (Invitrogen, without Ca^2+ and Mg^2+) and were fixed with a 4% pure-formaldehyde solution (Electron Microscopy Sciences) with 0.15% picric acid (Sigma-Aldrich) in D-PBS for 20 min, followed by three washes with D-PBS. Blocking and permeabilization were done with a 3% BSA (Jackson ImmunoResearch) and 0.3% Triton X-100 (Sigma-Aldrich) solution in D-PBS for 1 hr at room temperature. […]

[1] = system: mouse embryonic fibroblasts (MEFs); assay: Direct cardiac reprogramming of fibroblasts, contracting patch/colony counts; format: cell-based; settings: standard reprogramming media with LIF for the first nine days
Excerpt: Having successfully initiated the early cardiogenic program in MEFs, we next sought to induce robust activation of mid-stage cardiac gene expression and to ultimately generate spontaneously contracting patches of cardiac cells, a hallmark of terminal differentiation that is easily observed and quantified. To this end, we treated three-factor transduced MEFs with chemically defined media (CDM) as well as cytokines and small molecules that might enhance cardiogenesis by regulating TGFβ, bone morphogenetic protein (BMP), Hedgehog, Wnt, or Notch pathway activity. Treatments were done individually and in combination, and at different times during the reprogramming process. Despite the general unsuitability of the resulting protocol for iPSC generation, we also explored whether small-molecule inhibition of JAK-STAT (Janus kinase-signal transducer and activator of transcription), PI3K (phosphatidylinositol 3-kinase), or Wnt signalling during the early stages of the protocol might boost the effectiveness of cardiomyogenesis by preventing even a small number of iPSC intermediates from forming. Finally, we experimented with a more gradual transition between different media by lowering FBS concentration step-wise in increments of 1-4% over 3-6 days (immediately prior to switching to CDM). […] During this initial nine-day period, the small-molecule JAK inhibitor JD is continuously kept in the media at a concentration of 0.5 μM. From day nine onwards, the cells are cultured in CDM, with the cardioinductive growth factor BMP4 (Snyder, A. et al., J Cell Biochem 93, 224-32 (2004)) being added at 20 ng/ml for the first five days (FIG. 1b).
All MEFs (129S2/SvPasCrlf) were derived according to WiCell protocols (https://www.wicell.org/index.php?option=com_docman&task=doc_download&gid=687). TTFs were a kind gift of Dr. Hans Schöler. Secondary MEFs were derived as previously described (Wernig, M. et al., Nat Biotechnol 26, 916-24 (2008)). All results were initially obtained and confirmed with the Nebulette-LacZ MEFs; to ensure reproducibility and minimize inter-experimental variation, reported results almost exclusively derive from experiments utilizing secondary dox-inducible MEFs using the optimum induction period. MEFs were initially passaged on gelatin-coated (0.1% for 2 hours at 37° C.) tissue culture dishes in DMEM supplemented with 10% FBS, 2 mM Glutamax and 0.1 mM NEAA (all components from Invitrogen, Carlsbad, Calif.). Prior to viral transduction, cells were seeded onto Matrigel (BD Biosciences, Franklin Lakes, N.J.) or Geltrex (Invitrogen)-coated plates (1:40, overnight at 4° C.) at 3.5×10^4 cells per well of a six well plate (7×10^4 cells for TTFs) in the same media. […]

[2] = system: spontaneously contracting colonies (transdifferentiated cardiomyocytes); assay: Calcium imaging and testing of chronotropic agents; format: cell-based, mouse; settings: 1 μM isoproterenol or 10 μM carbachol; 10 minutes after addition
Method: Cells were loaded with Fluo-4-AM (5 μM, 30 min, 37° C.) (F14201, Invitrogen), and imaged with an Olympus Fluoview 1000 inverted confocal microscope with a 40× oil immersion lens (numerical aperture 1.3). Line scan imaging mode was used to measure spontaneous Ca2^+ transients at 37° C. Image processing and data analysis were performed as previously described (Ouyang, K. et al., J Biol Chem 280, 15898-902 (2005)). For drug testing, all measurements were repeated 10 minutes after the addition of isoproterenol (1 μM; Sigma) or Carbachol (10 μM; Sigma-Aldrich).

R1 ES cells [3] = assay: Serum-free monolayer cardiac differentiation of ES cells, beating colonies; format: cell-based, mouse; settings: early treatment window
Method: Having identified the first serum-free monolayer condition for cardiac differentiation of ES cells, we sought to test its efficacy as a platform to discover regulators of cardiomyogenesis. A collection of approximately 200 small molecules and growth factors reported to be influential in developmental processes were assembled. R1 ES cells were grown and plated for differentiation on Matrigel in 24-well plates using the media and growth factors described above. The screening collection was then added and removed from each well at specific time points in order to account for different developmental time windows. The collection was screened at days 0-2, 2-5, and 5-7.
Cells are plated at a density of 200,000 cells/well of a 6-well plate in 2.5 ml of ESGM. 6-well plates are coated overnight at 4° C. with 1 ml of Matrigel (BD Bioscience) diluted 50× from stock concentration. 24 hours after plating, or after sufficient colony size was achieved, cells are switched into chemically defined medium (CDM) and treated with 4 uM BIO (Calbiochem) and 20 ng/ml BMP-4 (R&D). CDM contains RPMI 1640, 0.5×N2, 1×B27 (without Vitamin A), 0.5× Glutamax, 0.55 mM beta-mercaptoethanol, 1× non-essential amino acids, 1× nucleosides. At Day 2, medium is changed, and again CDM containing 4 uM BIO with 20 ng/ml BMP-4 is added to the cells. At Day 5, cells are washed once with PBS and medium is changed to CDM containing 100 ng/ml Dkk-1 (R&D). At Day 7, medium is changed, and again CDM containing 100 ng/ml Dkk-1 is added to the cells. At Day 10, cells are trypsinized (0.05% trypsin) (Approximately 5 minutes at 37° C., or until cells begin to detach) and replated onto gelatin coated 6-well plates in CDM with no additional growth factors. By this time, the cells will have formed tight colonies that will be difficult to disrupt (Supplementary FIG. 2b). […] The trypsin is used primarily to detach the cells rather than to dissociate them to a single cell suspension. It is preferable for the colonies to remain intact. The trypsin is briefly quenched with MEF media, cells are centrifuged, and resuspended in CDM for plating. Medium is refreshed as needed to remove dead cells and debris (every 1 to 2 days).

R1 ES cells [4] = assay: QRT-PCR of markers in differentiating ES cells; format: cell-based, mouse; settings: treated day 0-2, harvested day 4.5
Method: To further analyze the mechanism of action of the cardiogenic effect seen with these molecules, QRT-PCR was carried out on cells treated from day 0-2 and harvested at day 4.5.
QRT-PCR was carried out to observe the induction of cardiomyogenesis at the transcript level. At day 5, when A83-01 treatment begins, the predominant state is that of a developed primitive streak type population that is yet to display robust expression of markers of cardiac precursors such as Nkx2.5, Isl-1, and c-kit.
Total RNA from each sample was prepared from 5×10^4 cells using RNeasy mini kit (Qiagen). Reverse transcription was carried out by using Reverse Transcription System (Promega) and PCR performed using PCR Super Mix (Invitrogen).

Compound | gene expression of Sox1, Pax6, Nanog, Rex1 (secondary MEFs; day 9) | number of PLZF-expressing colonies (secondary MEFs; day nine, as little as one day LIF exposure) | Sox17, T, and FGF5 expression (secondary MEFs; days 9, 11, and 13) | number of SSEA1-expressing cells (secondary MEFs; flow cytometry) | decline in beating colony number [1] [fold] | onset of beating [1] | decay period (τ) of calcium transients [2] | frequency of spontaneous calcium transients [2] | cardiac differentiation / percentage of beating colonies (R1 ES cells [3]) | expression of Brachyury T, Flk-1, GATA-4 and MESP1 (R1 ES cells [4])
LIF: leukaemia inhibitory factor, added to standard reprogramming medium | down-regulation of Sox1 and Pax6 with concomitant up-regulation of Nanog and Rex1 | clearly decreased | increased | increases | ~25 | four-day delay | – | – | – | –
C[N+](C)(C)CCOC(N)=O [carbachol] | – | – | – | – | – | – | opposite effects | opposite effects | – | –
CC(C)NCC(O)c1ccc(O)c(O)c1 (stereo not drawn) [isoproterenol] | – | – | – | – | – | – | shortened | significantly increased | even more potent cardiac inducing effect than BayK 8644 | increased
